# Biological target: T1, microsomal form of rat liver HMG-CoA reductase (Rattus norvegicus, UniProt P51639)
# T1 construct: from tissue; host or cells: rat liver microsomes
# T1 sequence (P51639 1-887): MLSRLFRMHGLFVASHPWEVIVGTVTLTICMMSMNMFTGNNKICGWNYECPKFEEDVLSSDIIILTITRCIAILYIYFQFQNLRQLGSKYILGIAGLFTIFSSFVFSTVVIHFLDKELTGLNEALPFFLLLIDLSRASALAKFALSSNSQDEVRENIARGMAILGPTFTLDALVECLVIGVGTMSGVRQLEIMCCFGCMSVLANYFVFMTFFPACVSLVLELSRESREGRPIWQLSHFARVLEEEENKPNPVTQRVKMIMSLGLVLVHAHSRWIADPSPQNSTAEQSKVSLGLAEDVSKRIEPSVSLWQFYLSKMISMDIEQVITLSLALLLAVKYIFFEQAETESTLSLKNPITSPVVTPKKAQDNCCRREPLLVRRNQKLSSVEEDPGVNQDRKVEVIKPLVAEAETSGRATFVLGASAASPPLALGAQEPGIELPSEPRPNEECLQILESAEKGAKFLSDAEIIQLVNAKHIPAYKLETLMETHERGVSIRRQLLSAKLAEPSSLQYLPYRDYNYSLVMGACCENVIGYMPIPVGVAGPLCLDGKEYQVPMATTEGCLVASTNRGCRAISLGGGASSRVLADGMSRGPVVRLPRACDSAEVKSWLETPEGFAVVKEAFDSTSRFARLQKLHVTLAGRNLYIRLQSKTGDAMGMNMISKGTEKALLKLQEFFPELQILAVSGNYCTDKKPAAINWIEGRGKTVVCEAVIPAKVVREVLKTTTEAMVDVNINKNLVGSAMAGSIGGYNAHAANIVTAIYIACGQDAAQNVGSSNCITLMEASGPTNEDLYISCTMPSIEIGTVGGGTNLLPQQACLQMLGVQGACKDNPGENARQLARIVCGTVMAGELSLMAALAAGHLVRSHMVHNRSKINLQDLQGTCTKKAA
# Assay: In Vitro Inhibition of Microsomal HMG-CoA Reductase
# Assay type: biochemical
# Conditions: 50 percent inhibitory concentration, rat liver microsomes, [3-14C]-HMG-CoA 0.33 mM, NADPH 3.0 mM, pH 7.2, at least 4 dilutions in duplicate
# Experimental: The intact, fully activated microsomal form of rat liver HMG-CoA reductase (subunit MW ca 100,000 daltons) was prepared as described by Parker, et al., Biochem. Biophys. Res. Commun., 125, 629-635 (1984), and used as the source of enzyme for assays. HMG-CoA reductase activity was determined essentially by the method of Shapiro, et al., Biochem. Biophys. Acta., 370, 369-377 (1974), with modifications as described by Ingebritsen and Gibson, Meth. Enzymol, 71, 486-497 (1981) with the exception that the internal standard ^3 H-mevalonolactone is added after termination of the assay. […]
# To measure reductase inhibition, test compounds dissolved in water or dimethylsulfoxide and diluted in buffer A (50 mM imidazole-HCl, 250 mM NaCl, 1 mM EDTA, 1 mM EGTA, 5 mM DTT, 20 μM leupeptin, pH=7.2) were incubated with aliquots of microsomes (80-160 μg protein in buffer A) followed by addition of d,1-[3-^14 C]-HMG-CoA (0.33 mM, 2.0 dpm/picomole) and NADPH (3.0 mM). The 50 percent inhibitory concentration (IC50) for each compound in Table 1 was calculated from the linear regression line of the percent decrease (from control) in enzyme activity vs. log concentration of inhibitor, determined using at least 4 dilutions of each test compound assayed in duplicate.
row,IC50 [µM],Structure (SMILES)
1,26,"N#CC(/C=C/[C@H]1C[C@H](O)CC(=O)O1)=C(c1ccc(F)cc1)c1ccc(F)cc1 (relative stereo) [Example 8, Trans-(E)-2-[bis(4-fluorophenyl)methylene]-4-(tetrahydro-4-hydroxy-6-oxo-2H-pyran-2-yl)-3-butenenitrile]"
2,8,"N#CC(/C=C/[C@@H](O)C[C@@H](O)CC(=O)O)=C(c1ccc(F)cc1)c1ccc(F)cc1 (relative stereo) [Example 7, Sodium (±)-(E)-erythro-8-cyano-9,9-bis(4-fluorophenyl)-3,5-dihydroxy-6,8-nonadienoate]"

# Reference: US5028730A, “Antihypercholesterolemic nitrile compounds” (Bristol-Myers Company, priority 1990, dated 1991)
